The values that follow are results of earlier work, collected in patent US20130337047A1, “COMPOSITIONS FOR TREATING ORAL AND PERIODONTAL INFECTIONS” (ZarzaTech, Inc., priority 2012, published 2013).

Counter-ions that a name gives are not always drawn.

One series deals with crevicular neutrophils. The settings on record: humans, topical 0.5% oral rinse.

Turning to `CN/C(=N/CCSCc1nc[nH]c1C)NC#N` [cimetidine HCL], the Anti-gingivitis activity entry in the series on gingivitis (dose response study, dog gingivitis model) is reported as “significant anti-gingivitis activity that increased with increasing dose”. Moreover, the Prevention of gingivitis entry in the series with gingivitis (prevention study, same dog model) is “not conclusive”.
On to `CN/C(=N/CCSCc1nc[nH]c1C)NC#N` [cimetidine], for which, in the series with gingivitis (dog gingivitis model), the “Antiplaque activity and tooth stain” value is “no antiplaque activity or increase in tooth stain”; the “Gingival inflammation and gingival bleeding” value was “significantly reduced”; the Gingivitis result is “reduced gingivitis”. In addition, in the series with crevicular neutrophils, the “Antibacterial function of crevicular neutrophils” value is “enhanced” and the Clinical gingivitis benefit entry is on record as “no clinical gingivitis benefit”.
